Results from ChEMBL document CHEMBL3507680, “University of Dundee, Gates Library screen for HepG2 cell viability”.

Assay: Human HepG2 cell viability assay in 384 well format
Type: toxicity, cell-based
Parameters: dose 125 nL, time 70.5 hour; cytotoxicity at 70.5 h: concentration not given beside the values
Details: HepG2 cells, read-out: Inhibition

| SMILES | cytotoxicity at 70.5 h |
| --- | --- |
| CNS(=O)(=O)c1ccc(CN2CCC(c3ccncc3)CC2)cc1 | -14.4% |
| Cc1ccc(CN2CCN(C3CCC3)CC2CCO)o1 (stereo unspecified) | -10.1% |
| CCN(C)C(=O)c1cccc(S(=O)(=O)NCCc2csc(N)n2)c1 | 19.2% |
| O=C1C[C@H]2CC[C@@H](CN1)N2C(=O)CCc1ccccc1 | -8.36% |
| CCN(CC)CCn1cnc(-c2ccccc2)c1-c1cnc(C)s1 | -7.41% |
| CC(C)=CCC/C(C)=C/CN1CCN(C)C2(CCNC(=O)CC2)C1 (stereo unspecified) | -9.38% |
| CN(C)c1ccc(-c2cccc(-c3ccn(CCCO)n3)c2)nn1 | -3.34% |
| CCCSc1ncc(C2CC(=O)NCc3nc4ccccn4c32)cn1 (stereo unspecified) | -3.19% |
| CC(C)c1nccc(CN2CCCC(O)(CN(C)C)CC2)n1 (stereo unspecified) | -7.74% |
| CCN1CC(C(=O)NCCc2csc(-c3ccncc3)n2)CC1=O (stereo unspecified) | -4.27% |
| COC(=O)c1cccc(-c2nc(CC3CCN(C)CC3)no2)c1 | -3.78% |
| Cn1cc(CN2CCCN(CCCc3ccccc3)CC2)cn1 | -15.4% |
| CC(C)n1ccnc1Cn1ccc2ncccc2c1=O | -0.693% |
| CC(C)C1CN(S(=O)(=O)N2CCCC2)CCCN1Cc1ccc(F)cc1 (stereo unspecified) | -3.07% |
| COc1nc2c(cc1C(=O)N(C)Cc1[nH]nc3c1CCC3)CCC2 | 27.9% |
| COCc1cc(NCc2cccnc2Oc2ccc(C)nc2)ncn1 | -12.4% |
| CC(C)[C@@H]1CN(C(=O)NCCc2ccccc2)C[C@H]1NS(=O)(=O)N(C)C | 2.29% |
| Cc1ccccc1N1CCN(C(=O)CSc2ccncc2)CC1=O | -8.48% |
| N#Cc1cccc(C(=O)N2C[C@H]3CC[C@@H]2CN(C(=O)C2CCC2)C3)c1 | -4.08% |
| CCNc1ncc(CN2CCOC(Cc3cccc(OC)c3)C2)cn1 (stereo unspecified) | -2.81% |
| NCCC1CN(Cc2cnc3c(-c4ccccc4)cnn3c2)CCO1 (stereo unspecified) | -2.68% |
| CCN1CCC[C@@H]1CNC(=O)c1cc(COc2ccccc2)[nH]n1 | -1.42% |
| O=C(O)c1ccc(C2CCCN(Cc3ccc(-c4cc[nH]n4)o3)C2)cc1 (stereo unspecified) | 16.9% |

| SMILES | cytotoxicity at 70.5 h |
| --- | --- |
| c1cc(CNc2ccc(-c3nc(C4CC4)no3)cn2)no1 | -8.43% |
| CCN1CCC(N[C@@H]2CC[C@@H]2NC(=O)Cc2csc(C)n2)CC1 | -1.08% |
| O=C(CN1CCOCC1)N(c1ccccc1)c1ccccc1 | -11.2% |
| CNCc1cn(C2CCN(CCC(C)c3ccccc3)CC2)nn1 (stereo unspecified) | 21.7% |
| Cn1ncc2c(N3CC[C@H](O)C3)nc(-c3ccncc3)nc21 | -15.7% |
| O=C(CC[C@@H]1CCCN2CCCC[C@H]12)NCCc1nc(O)cc(O)n1 | -5.7% |
| CC(Nc1ncnc2c1CCNC2)c1ccc2c(c1)CCCC2 (stereo unspecified) | -2.47% |
| CCCn1nc(C)c(CNS(=O)(=O)NCc2ccccc2)c1C | -12.7% |
| CC(C)CCN1CC2(CCCN(C(=O)NCc3cccs3)C2)CCC1=O (stereo unspecified) | -2.43% |
| COc1ccc(OCCCN(C)C(=O)C2CCCN2C(N)=O)cc1 (stereo unspecified) | -3.9% |
| COc1cccc(OC2CN(C(=O)CCn3cnnn3)C2)c1 | -10.5% |
| CC1CCCCN1C1CN(c2ccnc(C(=O)NCc3ccco3)c2)C1 (stereo unspecified) | -15.4% |
| CCCn1c(C)c(CC(=O)NCC(N)=O)c2c1CC(C)(C)CC2=O | 0.554% |
| O=C(Cc1c[nH]c(=O)[nH]c1=O)N1CCCCC1CCc1cccc(O)c1 (stereo unspecified) | -5.29% |
| CCCN(Cc1cnc2ccccc2n1)Cc1ccccc1OC | -7.09% |
| COc1ccc(S(=O)(=O)N[C@H]2CN(C(C)=O)C[C@@H]2C2CC2)cc1C | -14.2% |
| COc1ccc(-c2nc3c([nH]2)CCNC3)c(OC)c1OC | 1.85% |
| Cc1cc(CN(C)C(=O)CN2CC3(CCNCC3)OC2=O)no1 | -15.9% |
| CCOCCCNCc1cc(O)c2cc(C)ccc2n1 | 22.7% |
| CC(C)c1cc(NC2CCN(C(=O)N3CCCC3)CC2)ncn1 | 12.6% |
| O=C(NCCc1c[nH]cn1)C1CCCN(Cc2ccco2)C1 (stereo unspecified) | -1.6% |
| CC(Cc1cn(CCc2nnn[nH]2)nn1)c1ccccc1 (stereo unspecified) | -5.17% |
| Cc1ccc(CN(CCCO)Cc2nc3ccccc3[nH]2)s1 | -3.29% |

| SMILES | cytotoxicity at 70.5 h |
| --- | --- |
| CC(=O)c1ccc(C(=O)N2C[C@@H](CN3CCCC3)[C@@H](CO)C2)cc1 | 12.4% |
| CCc1cc(CN(C)Cc2nc(-c3sccc3C)oc2C)on1 | -9.39% |
| CC(C(=O)N1CCC(c2[nH]ncc2-c2ccccc2)CC1)n1cncn1 (stereo unspecified) | -9.13% |
| O=C1CCC2(CCCO2)CCN1Cc1noc(C2CCCC2)n1 (stereo unspecified) | 0.738% |
| CN1CC(c2ccccc2)CC2(CCN(C(=O)c3cccnn3)CC2)C1 (stereo unspecified) | -4.99% |
| C[C@H](NC(=O)C1(N(C)Cc2ccccc2)Cc2ccccc2C1)C(N)=O | -2.36% |
| Cc1ccccc1CN1CCN(C(=O)c2cnc(C3CC3)[nH]c2=O)CC1 | 7.92% |
| CSc1ccc(CN(CCO)C(=O)CCOc2ccccc2)cc1 | -7.56% |
| O=C1N(CCCc2ccccc2)CCCC12CCN(C(CO)CO)C2 (stereo unspecified) | -4.16% |
| Cc1nonc1OCCNc1ncnc2sc3c(c12)CCNC3 | -3.76% |
| CC(C)=CCN1CC2(CCN(Cc3cccc(C#N)c3)CC2)CC1=O | 8.66% |
| Cc1cc(C)n(-c2ccc(C(=O)NCC(CO)Cc3ccco3)cc2)n1 (stereo unspecified) | -7.33% |
| CN1CCN(Cc2nc3c(s2)CCCC3)[C@H]2CS(=O)(=O)C[C@H]21 | 1.26% |
| O=c1[nH]c(COc2cccc(F)c2)nc2c1CCNC2 | -17% |
| O=C(N[C@@H]1CCN(Cc2cc3ccccc3s2)C[C@H]1O)c1cccnc1 | -3.4% |
| CN(C)S(=O)(=O)NCc1cccnc1Oc1ccccc1 | -6.53% |
| c1ccc(CN2CCC(CNc3ncnc4c3CCNCC4)CC2)cc1 | 0.757% |
| CN(C)CCCN1CC2(CCN(C(=O)C3(C)CCCCO3)CC2)OC1=O (stereo unspecified) | 17.7% |
| Cc1cccnc1NCCNC(=O)C1CCN(Cc2ccco2)CC1 | 9.3% |
| CN1CCC2(CC1)CN(Cc1ccc(C3CCCCO3)o1)CCCN2C (stereo unspecified) | -4.97% |
| CC(C)c1cc(C(=O)N(Cc2ccncc2)CC2CCCO2)no1 (stereo unspecified) | -6.68% |
| Cc1cc(NCCCNc2cccnc2)n2nc(C)c(C)c2n1 | -10.7% |
| OCC1(CC2CC2)CCCN(Cc2cnc(N3CCOCC3)nc2)C1 (stereo unspecified) | -5.42% |

| SMILES | cytotoxicity at 70.5 h |
| --- | --- |
| CCc1nc(C)cc(NC(C)C(=O)Nc2cc(F)ccc2C)n1 (stereo unspecified) | -15.5% |
| CCc1cc(C(=O)N2CCC(C3CCN(c4ncccn4)CC3)C2)on1 (stereo unspecified) | 2.57% |
| Nc1cc(C(=O)N2CCCC3(C=Cc4ccccc4O3)CC2)ccn1 (stereo unspecified) | -4.49% |
| O=C(CN1CCN(CC2CCOc3ccccc3C2)CC1)N1CCCC1 (stereo unspecified) | -13% |
| Cc1cc(C(=O)N(C)Cc2cnn(C)c2)c(NC(=O)C(C)(C)C)s1 | -12.1% |
| CNc1nc(C(=O)N2CCN(c3ccc(Cl)c(Cl)c3)CC2)cs1 | -6.48% |
| CCC(=O)NC(CC)c1ccccc1C (stereo unspecified) | -5.25% |
| Oc1ccc(N2CCC(Cc3ccccc3)CC2)nn1 | -4.56% |
| Cc1cc(C(=O)N(C)Cc2ccn[nH]2)c(NC(=O)C(C)(C)C)s1 | -9.88% |
| COc1ccc2c(c1)OCC(Cc1cnc(N)c(C)c1)C2 (stereo unspecified) | 1.49% |
| CCn1c(C2CCCN(Cc3ccc(F)cc3Cl)C2)nn(C)c1=O (stereo unspecified) | 6.43% |
| COCCOC1CCN(C(C(=O)O)c2c(Cl)cccc2OC)CC1 (stereo unspecified) | -10.5% |
| Cn1ncc(NC(=O)Cn2ccc(-c3cccc(F)c3)n2)n1 | 1.6% |
| CCOC(=O)c1cc2c(=O)[nH]c(=O)n(CCc3ccccc3)c2nc1C | -7.68% |
| COCC(=O)N1CCC(C(=O)Nc2ccc(S(N)(=O)=O)cc2)CC1 | -7.49% |
| Cc1ccc(NC(=O)c2cc3c(=O)n(C)c(=O)n(C)c3nc2C)cc1Cl | 1.87% |
| Cc1ccc2c(c1)SCC(=O)N2CC(=O)N1CCC[C@H]1c1nc(C)no1 | -5.13% |
| Cn1c(CN2CCCC2)nnc1C1CCCN(C(=O)CN2CCCC2)C1 (stereo unspecified) | 2.51% |
| CSc1ncccc1C(=O)N1C[C@H]2CC[C@@H]1CN(C(=O)N(C)C)C2 | -7.79% |
| Cc1cc2c(c(-c3cnccn3)c1)OC(CN)C2 (stereo unspecified) | -6.44% |
| Cc1ccc(O)c(CN2CCn3nc(C(=O)N4CCCC4)cc3C2)n1 | 0.113% |
| COc1ccc(-c2cccc3c2OC(CN)C3)cc1F (stereo unspecified) | 5.9% |
| c1cncc(CCc2nc(C3CC3)nn2-c2ccc3c(c2)OCCO3)c1 | 21.8% |

| SMILES | cytotoxicity at 70.5 h |
| --- | --- |
| CSCCc1c(-c2ccccc2)ncn1CC(C)(C)N1CCCC1 | -10.9% |
| Cc1ccc(N2CCC(C(O)c3cccs3)CC2)nn1 (stereo unspecified) | -4.12% |
| Cc1c[nH]c(CN2CCCn3nc(CNS(C)(=O)=O)cc3C2)n1 | 16% |
| Cc1ccc(OCC2CCCN(C(=O)c3csc(CN(C)C)n3)C2)cc1 (stereo unspecified) | -4.88% |
| CCC[C@H]1CN(CCS(C)(=O)=O)C[C@@H]1NC(=O)c1ccccn1 | -5.77% |
| CC(=O)NCc1nnc2n1CCN(c1nc(C)nc3sccc13)CC2 | -7.13% |
| O=C(N[C@@H]1CCNC[C@H]1O)c1ccccc1OC(F)(F)C(F)F | 0.818% |
| C=C(C)CNC(=O)C1CCCN(C2CCN(C(C)C)CC2)C1 (stereo unspecified) | -2.47% |
| CCNC(=O)[C@@H]1C[C@@H](NC(=O)Cc2cc(C)no2)CN1Cc1ccsc1 | -12.7% |
| COc1ccccc1OCc1cc(C(=O)N2C[C@@H](C)O[C@@H](C)C2)n[nH]1 | -11.2% |
| CC(C)c1cc(N(C)Cc2noc(C3CCCC3)n2)n2nccc2n1 | -13.6% |
| Cn1cc(C(=O)N2CCCCC2CCc2ccccc2)cn1 (stereo unspecified) | -10.6% |
| CC(C)[C@@H](C)NC(=O)N1CCn2nc(C(=O)NCCN(C)C)cc2C1 | -0.748% |
| Cc1ncsc1C(=O)N1CCc2[nH]nc(-c3ccc4c(c3)OCO4)c2C1 | 13.6% |
| Cc1ccc([C@@H]2CN(S(=O)(=O)c3cc(C)ccc3F)C[C@H]2N(C)C)cc1 | -8.32% |
| COc1cccc(OCC2CCCN(Cc3ncc[nH]3)C2)c1 (stereo unspecified) | 33.4% |
| CC(C1CCN(Cc2cccc(OC(F)F)c2)CC1)N1CCOCC1 (stereo unspecified) | -9.64% |
| Cc1c(-c2n[nH]c3c2CN(CC2CCOC2)CC3)cccc1C(F)(F)F (stereo unspecified) | -6.06% |
| CCNc1nc(C)c(C(=O)N(C)Cc2noc(C)n2)s1 | 11.7% |
